Tests used:
HEK293-GnRHR cells [1] = biological target: T1, HEK293-GnRHR cells (Homo sapiens, UniProt P30968); experiment: CRE-luciferase reporter assay; assay type: cell-based; details: 100 nM, 24 h
T1 construct: GFP; expressed in transfected cells
T1 sequence (P30968 1-328): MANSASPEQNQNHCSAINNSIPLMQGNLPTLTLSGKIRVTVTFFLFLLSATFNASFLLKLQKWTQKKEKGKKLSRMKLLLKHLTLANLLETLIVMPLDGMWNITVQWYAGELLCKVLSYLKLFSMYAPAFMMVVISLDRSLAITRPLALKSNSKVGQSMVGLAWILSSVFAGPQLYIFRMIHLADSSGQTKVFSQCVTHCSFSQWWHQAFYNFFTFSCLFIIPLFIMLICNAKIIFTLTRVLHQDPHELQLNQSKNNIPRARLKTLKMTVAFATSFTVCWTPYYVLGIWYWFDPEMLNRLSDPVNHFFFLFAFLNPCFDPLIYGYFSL
Experimental: (§1) Human embryonic kidney cell line (HEK293), and mouse cancer cell lines (MC38, 4T1) were purchased from the American Type Culture Collection (Manassas, VA, USA). All cell lines were grown in Dulbecco's Modified Essential Medium (DMEM) or Roswell Park Memorial Institute (RPMI) 1640 supplemented with 10% FBS, 100 U/mL penicillin, and 100 μg/mL streptomycin (WelGENE, Daegu, South Korea) in a humidified atmosphere of 5% CO2 at 37° C. To obtain GnRHR-overexpressing HEK293 (HEK293-GnRHR) cells, transfection of the pCMV-AC-GFP-GnRHR vector (HEK293-GnRHR) was performed using Lipofectamine™ 3000 according to the manufacturer's instructions (Cat. 100022052, Thermo Fisher Scientific, Waltham, MA, USA). Colonies of geneticin-resistant cells were selected by adding G418 (800 μg/mL, Sigma) to the culture medium. The HEK293-pCMV-AC-GFP vector (HEK293-Vector) cells were used as a mock-transfection group.
The HEK293-pCMV6-AC-GFP and HEK293-GnRHR cells (4×10^4 cells/well) were grown in 96-well plates and co-transfected with a luciferase reporter plasmid containing a cAMP response element (CRE) using Lipofectamine 3000 (Life Technologies). The transfected cells were exposed to different concentrations of peptide for 24 h, and the promoter activity was measured by a dual-luciferase reporter assay system (BPS Bioscience). The firefly and Renilla luciferase activities were measured using a microplate luminometer (Thermo, Varioskan LUX Multimode Microplate Reader). The calculation of relative luciferase activities involved the normalization of the firefly luciferase activity […].

[2] = test system: c-Myc, AKT, ERK1/2 in LNCaP tumor xenografts; experiment: Western blot of c-Myc and signaling proteins in LNCaP-xenografted tumors (FIG. 14); assay type: in vivo, mouse; details: LNCaP xenograft; HS1002 1 mg/kg/day, LA 0.1 mg/kg/day s.c.
Experimental: The cells and tumor tissues were homogenized using the PRO-PREP™ extraction solution (iNtRON Biotechnology, Seongnam, Korea). After incubation, the homogenate was centrifuged at 16,000×g for 20 min at 4° C., and the supernatant was collected for western blot analysis. Subsequently, an equivalent quantity of protein was separated using sodium dodecyl sulfate polyacrylamide gels and transferred onto a polyvinylidene difluoride (PVDF) membrane. The PVDF membranes were incubated with the primary antibodies overnight at 4° C., washed with tris-buffered saline, and then incubated with HRP-conjugated anti-mouse or anti-rabbit antibodies. The bands were visualized using a ChemiDoc imaging system (Bio-Rad, Hercules, CA, USA). The band intensities were determined using an Image J software.
All mice were purchased from Central Lab Animal Inc. ([…]). They were raised in a 12 h environmental light/dark cycle with controlled temperature (22±2° C.) conditions. The experimental protocol was approved by the Sungkyunkwan University Institutional Animal Care and Use Committee (SKKUIACUC2021-06-27-1, SKKUIACUC2023-01-07-1). For the establishment of tumors, LNCaP (1×10^7), MC38 (2×10^5), and 4T1 (1×10^6) suspended in serum-free media containing 50% Matrigel was subcutaneously administered in the right flank of mice, respectively. The tumor volumes (V) were calculated using a caliper and the standard equation: V (mm^3)=0.52 (ab^2) (a=length, b=width). Once the tumor reached 100-200 mm^3, the mice were randomly divided into different groups and subcutaneously injected with a vehicle or each peptide every day.
To investigate the anticancer effect of HS1002, the present inventors observed the volume of cancer cells after transplanting the cancer cells into experimental animals. Specifically, mice (4-week-old male BALB/c nude mice; Central Lab. Animal Inc., Seoul, Korea) were prepared, and tumor cells (1×10^7 LNCaP cells) suspended in 1 mL of a serum-free medium containing 50% Matrigel were percutaneously injected into the upper flank of each nude mouse. When the tumor cell volume reached about 200 mm^3, the mice were randomly assigned to a vehicle control group, a leuprolide acetate-treated group, and test groups (GV1001-treated group and HS1002-treated group), respectively. Leuprolide acetate (0.1 mg/kg/day) and GV1001 and HS1002 (1 mg/kg/day) were injected subcutaneously for 13 days.

HEK293-GnRHR cells [3] = biological target: T1, HEK293-GnRHR cells; experiment: Intracellular calcium flux assay; assay type: cell-based; details: 100 nM
Experimental: as §1
Intracellular calcium mobilization was measured using the Calcium Flux Assay Kit (Cat. ab233472, abcam) in response to different concentrations of each peptide. The percentage increase was calculated relative to basal fluorescence intensity. The experiment was performed in triplicate.

HEK293-Vector cells = experiment: CRE-luciferase reporter assay, mock-transfected cells; assay type: cell-based, human
Experimental: as §1, with “group. […] The transfected cells were exposed to different concentrations of peptide for 24 h, and the promoter activity was measured by a dual-luciferase reporter assay system (BPS Bioscience). The firefly and Renilla luciferase activities were measured using a microplate luminometer (Thermo, Varioskan LUX Multimode Microplate Reader). […]” for “group.”

CCNC(=O)[C@@H]1CCCN1C(=O)[C@H](CCCNC(=N)N)NC(=O)[C@H](CC(C)C)NC(=O)[C@@H](CC(C)C)NC(=O)[C@H](Cc1ccc(O)cc1)NC(=O)[C@H](CO)NC(=O)[C@H](Cc1c[nH]c2ccccc12)NC(=O)[C@H](Cc1c[nH]cn1)NC(=O)[C@@H]1CCC(=O)N1 [LA, Leuprolide acetate, reference compound]
CRE-derived reporter gene activity (HEK293-GnRHR cells [1]): induced CRE-derived reporter gene activity
expression of c-Myc in tumor tissue [2]: significantly downregulated
expression of p-AKT in tumor tissue [2]: significantly downregulated
expression of p-ERK1/2 in tumor tissue [2]: significantly downregulated
calcium flux (HEK293-GnRHR cells [3]): more potent effect of calcium flux in HEK293-GnRHR cells than in HEK293-Vector cells
CRE-luciferase activity (HEK293-Vector cells): no significant change
